Experimental data from PubChem BioAssay AID1259411 (Chemical Carcinogenesis Research Information System (CCRIS), 2018).
Calls of active or inactive are those of the source. How the calls were made is not given here.

Test system: rodent carcinogenicity bioassays, tumor incidence
Experiment: CCRIS carcinogenicity studies
Outline: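 Archive of carcinogenicity, mutagenicity, tumor promotion and tumor inhibition results drawn from journals, NCI reports and other sources, expert-reviewed; covers 1985-2011 and is no longer updated.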

Structure (SMILES): CC1CN1 (stereo not drawn)
- carcinogen call (Species: RAT, Strain/Sex: STRAIN-CD/FEMALE, Route: GAVAGE, Dose: 10.5, 20.7 MG/KG (AVE DOSE) IN WATER 2/WK FOR 58 WK (LOW DOSE) OR 27 WK (HIGH DOSE), Tumor Site: Type of Lesion: INTESTINES: ADENOCARCINOMA, BRAIN (CEREBRUM): GLIOMA, EAR (DUCT): SQUAMOUS CELL CARCINOMA, MAMMARY GLAND: ADENOCARCINOMA, Tumor Site: Type of Lesion: INTESTINES: ADENOCARCINOMA, BRAIN (CEREBRUM): GLIOMA, EAR (DUCT): SQUAMOUS CELL CARCINOMA, MAMMARY GLAND: ADENOCARCINOMA): active; positive
- carcinogen call (Species: RAT, Strain/Sex: STRAIN-CD/MALE, Route: GAVAGE, Dose: 10.5, 20.7 MG/KG (AVE DOSE) IN WATER 2/WK FOR 58 WK (LOW DOSE) OR 27 WK (HIGH DOSE), Tumor Site: Type of Lesion: HEMATOPOIETIC SYSTEM (LEUKEMIA): GRANULOCYTIC LEUKEMIA, BRAIN (CEREBRUM): GLIOMA, EAR (DUCT): SQUAMOUS CELL CARCINOMA, I, Tumor Site: Type of Lesion: HEMATOPOIETIC SYSTEM (LEUKEMIA): GRANULOCYTIC LEUKEMIA, BRAIN (CEREBRUM): GLIOMA, EAR (DUCT): SQUAMOUS CELL CARCINOMA, I): active; positive

Structure (SMILES): COc1ccc(N)c(OC)c1
- carcinogen call (Species: MOUSE, Strain/Sex: B6C3F1/FEMALE, Route: ORAL, Dose: 0, 2500, 5000 PPM IN DIET, Dose: 0, 2500, 5000 PPM IN DIET): inactive; negative
- carcinogen call (Species: MOUSE, Strain/Sex: B6C3F1/MALE, Route: ORAL, Dose: 0, 2500, 5000 PPM IN DIET, Dose: 0, 2500, 5000 PPM IN DIET): inactive; negative
- carcinogen call (Species: RAT, Strain/Sex: F344/FEMALE, Route: ORAL, Dose: 0, 1500, 3000 PPM IN DIET, Dose: 0, 1500, 3000 PPM IN DIET): inactive; negative
- carcinogen call (Species: RAT, Strain/Sex: F344/MALE, Route: ORAL, Dose: 0, 1500, 3000 PPM IN DIET, Dose: 0, 1500, 3000 PPM IN DIET): inactive; negative

Structure (SMILES): COP(=S)(OC)Oc1ccc(SC)c(C)c1
- carcinogen call (Species: MOUSE, Strain/Sex: B6C3F1/FEMALE, Route: ORAL, Dose: 0, 10, 20 PPM IN DIET, Dose: 0, 10, 20 PPM IN DIET): inactive; negative
- carcinogen call (Species: Mouse, Strain/Sex: B6C3F1/Female (60/group), Route: Oral, Dose: 0, 0.1, 1, 5, 25 ppm in diet for up to 2 yr, study duration 2 yr, Dose: 0, 0.1, 1, 5, 25 ppm in diet for up to 2 yr, study duration 2 yr): inactive; negative
- carcinogen call (Species: Mouse, Strain/Sex: B6C3F1/Male (60/group), Route: Oral, Dose: 0, 0.1, 1, 5, 25 ppm in diet for up to 2 yr, study duration 2 yr, Dose: 0, 0.1, 1, 5, 25 ppm in diet for up to 2 yr, study duration 2 yr): inactive; negative
- carcinogen call (Species: RAT, Strain/Sex: F344/MALE, Route: ORAL, Dose: 0, 10, 20 PPM IN DIET, Dose: 0, 10, 20 PPM IN DIET): inactive; negative
- carcinogen call (Species: Rat, Strain/Sex: Fischer 344/Female (50/Group), Route: Oral, Dose: 0 (corn oil), 5, 20, 100 ppm in diet for 2 yr, study duration 2 yr, Dose: 0 (corn oil), 5, 20, 100 ppm in diet for 2 yr, study duration 2 yr): inactive; negative
- carcinogen call (Species: Rat, Strain/Sex: Fischer 344/Male (50/Group), Route: Oral, Dose: 0 (corn oil), 5, 20, 100 ppm in diet for 2 yr, study duration 2 yr, Dose: 0 (corn oil), 5, 20, 100 ppm in diet for 2 yr, study duration 2 yr): inactive; negative

Structure (SMILES): CCC(C)n1c(=O)[nH]c(C)c(Br)c1=O (stereo not drawn)
- carcinogen call (Species: Mouse, Strain/Sex: CD-1/Female (80/sex/dose), Route: Oral, Dose: 0, 250, 1250, 5000 ppm in diet for 18 mo, Dose: 0, 250, 1250, 5000 ppm in diet for 18 mo): inactive; negative; purity 95%
- carcinogen call (Species: Mouse, Strain/Sex: CD-1/Male (80/sex/dose), Route: Oral, Dose: 0, 250, 1250, 5000 ppm in diet for 18 mo, Dose: 0, 250, 1250, 5000 ppm in diet for 18 mo, Tumor Site: Type of Lesion: Liver: significant increase in combined hepatocellular adenomas and carcinomas at highest dose, liver lesions (neoplasti): active; positive: purity 95%
- carcinogen call (Species: Rat, Strain/Sex: Crl:CD (BR)/Female (62/sex/group), Route: Oral, Dose: 0, 50, 250, 2500 ppm in diet for 2 yr, Dose: 0, 50, 250, 2500 ppm in diet for 2 yr): inactive; negative (mtd may have been exceeded); purity: 95-99%
- carcinogen call (Species: Rat, Strain/Sex: Crl:CD (BR)/Male (62/sex/group), Route: Oral, Dose: 0, 50, 250, 2500 ppm in diet for 2 yr, Dose: 0, 50, 250, 2500 ppm in diet for 2 yr): inactive; negative (mtd may have been exceeded); purity: 95-99%

Structure (SMILES): C=CCOC(=O)CC(C)C
- carcinogen call (Species: MOUSE, Strain/Sex: B6C3F1/FEMALE, Route: GAVAGE, Dose: 0, 31, 62 MG/KG IN CORN OIL FOR 103 WK, Dose: 0, 31, 62 MG/KG IN CORN OIL FOR 103 WK, Tumor Site: Type of Lesion: LYMPHATIC SYSTEM: MALIGNANT LYMPHOMA): active; positive
- carcinogen call (Species: RAT, Strain/Sex: F344/MALE, Route: GAVAGE, Dose: 0, 31, 62 MG/KG IN CORN OIL FOR 103 WK, Dose: 0, 31, 62 MG/KG IN CORN OIL FOR 103 WK, Tumor Site: Type of Lesion: HEMATOPOIETIC SYSTEM (LEUKEMIA): MONONUCLEAR CELL LEUKEMIA): active; positive

Structure (SMILES): CCCl
- carcinogen call (Species: MOUSE, Strain/Sex: B6C3F1/FEMALE, Route: INHALATION, Dose: 0, 15000 PPM IN AIR 6 HR/D 5 D/WK FOR 100 WK (STUDY DURATION: 100 WK), Tumor Site: Type of Lesion: LIVER: HEPATOCELLULAR CARCINOMA, LIVER: HEPATOCELLULAR ADENOMA OR CARCINOMA, UTERUS: CARCINOMA, Tumor Site: Type of Lesion: LIVER: HEPATOCELLULAR CARCINOMA, LIVER: HEPATOCELLULAR ADENOMA OR CARCINOMA, UTERUS: CARCINOMA): active; positive
- carcinogen call (Species: Mouse, Strain/Sex: B6C3F1/Female (50/Group), Route: Inhalation, Dose: 0, 15,000 ppm 6 hr/d, 5 d/wk for 100 wk, Tumor Site: Type of Lesion: Uterus: carcinoma (2% vs 90%, p<10-8), Uterus: lymphoma (2% vs 14%, p=0.03), Liver: adenoma and carcinoma (6% vs 17%, p=, Tumor Site: Type of Lesion: Uterus: carcinoma (2% vs 90%, p<10-8), Uterus: lymphoma (2% vs 14%, p=0.03), Liver: adenoma and carcinoma (6% vs 17%, p=): active; positive
- carcinogen call (Species: Mouse, Strain/Sex: B6C3F1/Male (50/Group), Route: Inhalation, Dose: 0, 15,000 ppm 6 hr/d, 5 d/wk for 100 wk): inactive; negative
- carcinogen call (Species: RAT, Strain/Sex: F344/FEMALE, Route: INHALATION, Dose: 0, 15000 PPM IN AIR 6 HR/D 5 D/WK FOR 102 WK (STUDY DURATION: 102 WK), Tumor Site: Type of Lesion: BRAIN: ASTROCYTOMA): equivocal
- carcinogen call (Species: RAT, Strain/Sex: F344/MALE, Route: INHALATION, Dose: 0, 15000 PPM IN AIR 6 HR/D 5 D/WK FOR 102 WK (STUDY DURATION: 102 WK), Tumor Site: Type of Lesion: SKIN: TRICHOEPITHELIOMA, SEBACEOUS GLAND ADENOMA OR BASAL CELL CARCINOMA): equivocal
- carcinogen call (Species: Rat, Strain/Sex: F344/Female (50/Group), Route: Inhalation, Dose: 0, 15,000 ppm 6 hr/d, 5 d/wk for 102 wk): inactive; negative
- carcinogen call (Species: Rat, Strain/Sex: F344/Male (50/Group), Route: Inhalation, Dose: 0, 15,000 ppm 6 hr/d, 5 d/wk for 102 wk): inactive; negative

Structure (SMILES): CCCCCC(O)/C=C/C=O (stereo not drawn)
- carcinogen call (Species: MOUSE, Strain/Sex: B6C3F1/FEMALE, Route: INTRAPERITONEAL, Dose: 0, 750 NMOL TOTAL DOSE, 1/3 AND 2/3 OF THE TOTAL DOSE ADMINISTERED AT 8 AND 15 DAYS OF AGE RESPECTIVELY, ANIMALS TERMINA): inactive; negative
- carcinogen call (Species: MOUSE, Strain/Sex: B6C3F1/FEMALE, Route: INTRAPERITONEAL, Dose: 0, 1500 NMOL TOTAL DOSE, 1/3 AND 2/3 OF THE TOTAL DOSE ADMINISTERED AT 8 AND 15 DAYS OF AGE RESPECTIVELY, ANIMALS TERMIN): inactive; negative
- carcinogen call (Species: MOUSE, Strain/Sex: B6C3F1/MALE, Route: INTRAPERITONEAL, Dose: 0, 750 NMOL TOTAL DOSE, 1/3 AND 2/3 OF THE TOTAL DOSE ADMINISTERED AT 8 AND 15 DAYS OF AGE RESPECTIVELY, ANIMALS TERMINA): inactive; negative
- carcinogen call (Species: MOUSE, Strain/Sex: B6C3F1/MALE, Route: INTRAPERITONEAL, Dose: 0, 1500 NMOL TOTAL DOSE, 1/3 AND 2/3 OF THE TOTAL DOSE ADMINISTERED AT 8 AND 15 DAYS OF AGE RESPECTIVELY, ANIMALS TERMIN): inactive; negative
- carcinogen call (Species: MOUSE, Strain/Sex: CD-1/FEMALE, Route: INTRAPERITONEAL, Dose: 0, 50, 100, 200 NMOL/MOUSE (TOTAL DOSE) ADMINISTERED IN 3 DOSES ON DAY 1, 8 AND 15 OF STUDY (STUDY DURATION: 6 WK), Dose: 0, 50, 100, 200 NMOL/MOUSE (TOTAL DOSE) ADMINISTERED IN 3 DOSES ON DAY 1, 8 AND 15 OF STUDY (STUDY DURATION: 6 WK)): inactive; negative
- carcinogen call (Species: MOUSE, Strain/Sex: CD-1/MALE, Route: INTRAPERITONEAL, Dose: 0, 50, 100, 200 NMOL/MOUSE (TOTAL DOSE) ADMINISTERED IN 3 DOSES ON DAY 1, 8 AND 15 OF STUDY (STUDY DURATION: 6 WK), Dose: 0, 50, 100, 200 NMOL/MOUSE (TOTAL DOSE) ADMINISTERED IN 3 DOSES ON DAY 1, 8 AND 15 OF STUDY (STUDY DURATION: 6 WK)): inactive; negative

Structure (SMILES): Cn1c2ccccc2c2ccccc21
- carcinogen call (Species: MOUSE, Strain/Sex: CD-1/FEMALE, Route: INTRAPERITONEAL, Dose: 0, 1.75 UMOL/MOUSE (TOTAL DOSE) ADMINISTERED DURING DAYS 1, 8, AND 15 OF LIFE (STUDY DURATION: 52 WK)): inactive; negative
- carcinogen call (Species: MOUSE, Strain/Sex: CD-1/MALE, Route: INTRAPERITONEAL, Dose: 0, 1.75 UMOL/MOUSE (TOTAL DOSE) ADMINISTERED DURING DAYS 1, 8, AND 15 OF LIFE (STUDY DURATION: 52 WK)): inactive; negative
